Results as given in PubChem BioAssay AID248 (DTP/NCI, 2004).
Toxic doses and inconclusive results are not listed. Cut-off read from the data, not from the text of the source: active = T/C of 150% or more; inactive = T/C below 125%.

Test system: L1210 leukemia ip in BDF1 mice, survival T/C
Assay: NCI In Vivo Anticancer Drug Screen. Data for tumor model L1210 Leukemia (intraperitoneal) in B6D2F1 (BDF1) mice
Conditions: endpoint: mean survival time, higher = longer survival
Outline: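 Read-out is survival time, reported as the treated-group measurement over the vehicle-control measurement.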

[1] = dose: 400.0 mg/kg/injection, schedule: Q01DX001 (ip), vehicle: carboxymethylcellulose (CMC)
[2] = dose: 100.0 mg/kg/injection, schedule: Q01DX001 (ip), vehicle: saline
[3] = dose: 200.0 mg/kg/injection, schedule: Q01DX001 (ip), vehicle: saline
[4] = dose: 400.0 mg/kg/injection, schedule: Q01DX001 (ip), vehicle: saline
[5] = dose: 100.0 mg/kg/injection, schedule: Q01DX009 (ip), vehicle: Klucel (hydroxypropylcellulose) (HPC)
[6] = dose: 200.0 mg/kg/injection, schedule: Q01DX009 (ip), vehicle: Klucel (hydroxypropylcellulose) (HPC)
[7] = dose: 100.0 mg/kg/injection, schedule: Q01DX009 (ip), vehicle: saline
[8] = dose: 200.0 mg/kg/injection, schedule: Q01DX009 (ip), vehicle: saline
[9] = dose: 400.0 mg/kg/injection, schedule: Q01DX009 (ip), vehicle: saline
[10] = dose: 100.0 mg/kg/injection, schedule: Q04DX003 (ip), vehicle: Klucel (hydroxypropylcellulose) (HPC)
[11] = dose: 200.0 mg/kg/injection, schedule: Q04DX003 (ip), vehicle: Klucel (hydroxypropylcellulose) (HPC)
[12] = dose: 400.0 mg/kg/injection, schedule: Q04DX003 (ip), vehicle: Klucel (hydroxypropylcellulose) (HPC)

Measured: T/C

NCCCC(NC(=O)CCCCCCCCN=C(N)N)C(O)CCCCCCCCN=C(N)N (configuration not stated)
inactive: dose: 0.38 mg/kg/injection, schedule: Q01DX Z (ip), vehicle: carboxymethylcellulose (CMC) 102 % of control | dose: 0.75 mg/kg/injection, schedule: Q01DX Z (ip), vehicle: carboxymethylcellulose (CMC) 94 % of control | dose: 1.5 mg/kg/injection, schedule: Q01DX Z (ip), vehicle: carboxymethylcellulose (CMC) 96 % of control | dose: 3.0 mg/kg/injection, schedule: Q01DX Z (ip), vehicle: carboxymethylcellulose (CMC) 107 % of control | dose: 5.0 mg/kg/injection, schedule: Q01DX001 (ip), vehicle: carboxymethylcellulose (CMC) 94 % of control | dose: 6.0 mg/kg/injection, schedule: Q01DX Z (ip), vehicle: carboxymethylcellulose (CMC) 121 % of control | dose: 10.0 mg/kg/injection, schedule: Q01DX001 (ip), vehicle: carboxymethylcellulose (CMC) 100 % of control | dose: 20.0 mg/kg/injection, schedule: Q01DX001 (ip), vehicle: carboxymethylcellulose (CMC) 103 % of control

O=C(O)c1ccccc1-c1ccc([N+](=O)[O-])cc1Cl
inactive: dose: 177.0 mg/kg/injection, schedule: Q01DX001 (ip), vehicle: carboxymethylcellulose (CMC) 106 % of control | dose: 266.0 mg/kg/injection, schedule: Q01DX001 (ip), vehicle: carboxymethylcellulose (CMC) 98 % of control | [1] 104 % of control

CCCCCCCCCC(CCCCCCCC)SC(C)=O (configuration not stated)
inactive: dose: 100.0 mg/kg/injection, schedule: Q04DX002 (ip), vehicle: Klucel (hydroxypropylcellulose) (HPC) 108 % of control | dose: 200.0 mg/kg/injection, schedule: Q04DX002 (ip), vehicle: Klucel (hydroxypropylcellulose) (HPC) 103 % of control | dose: 400.0 mg/kg/injection, schedule: Q04DX002 (ip), vehicle: Klucel (hydroxypropylcellulose) (HPC) 103 % of control

N#CCCn1c2ccccc2c2ccccc21
inactive: dose: 50.0 mg/kg/injection, schedule: Q01DX001 (ip), vehicle: saline 96 % of control | dose: 50.0 mg/kg/injection, schedule: Q04DX002 (ip), vehicle: gum acacia 91 % of control | [2] 102 % of control | dose: 100.0 mg/kg/injection, schedule: Q04DX002 (ip), vehicle: gum acacia 91 % of control | [3] 102 % of control | dose: 200.0 mg/kg/injection, schedule: Q04DX002 (ip), vehicle: gum acacia 98 % of control | [4] 96 % of control

Cc1coc(NS(=O)(=O)c2ccc(N=Nc3c(N)[nH]c(=O)[nH]c3=O)cc2)c1C
inactive: [2] 103 % of control | [3] 96 % of control | [4] 104 % of control

Clc1ccc(C2=NC(c3ccccc3)N3C2C3c2ccccc2)cc1 (configuration not stated)
inactive: dose: 100.0 mg/kg/injection, schedule: Q01DX001 (ip), vehicle: saline with Tween-80 95 % of control | dose: 200.0 mg/kg/injection, schedule: Q01DX001 (ip), vehicle: saline with Tween-80 89 % of control | dose: 400.0 mg/kg/injection, schedule: Q01DX001 (ip), vehicle: saline with Tween-80 89 % of control

O=[N+]([O-])c1cc(S(=O)(=O)F)cc(Cl)c1O
inactive: [5] 97 % of control | [6] 89 % of control

NC(N)=N/N=C/c1cccc(Cl)c1Cl
inactive: dose: 7.5 mg/kg/injection, schedule: Q01DX Z (ip), vehicle: other 97 % of control | dose: 15.0 mg/kg/injection, schedule: Q01DX Z (ip), vehicle: other 100 % of control | dose: 30.0 mg/kg/injection, schedule: Q01DX Z (ip), vehicle: other 92 % of control | dose: 60.0 mg/kg/injection, schedule: Q01DX Z (ip), vehicle: other 86 % of control

CC(C)N(C(=S)S)C(C)C
inactive: [7] 105 % of control | [8] 102 % of control | [9] 103 % of control

COC(=O)c1c[nH]c(=O)cc1O
inactive: [2] 101 % of control | [3] 98 % of control | [4] 98 % of control

NC(=O)CC(NC(=O)C(F)(F)F)C(=O)O (configuration not stated)
inactive: dose: 100.0 mg/kg/injection, schedule: Q04DX003 (ip), vehicle: carboxymethylcellulose (CMC) 98 % of control | dose: 200.0 mg/kg/injection, schedule: Q04DX003 (ip), vehicle: carboxymethylcellulose (CMC) 98 % of control | dose: 400.0 mg/kg/injection, schedule: Q04DX003 (ip), vehicle: carboxymethylcellulose (CMC) 88 % of control

CC(=O)Nc1nc(C)c(CCC#N)c(=O)[nH]1
inactive: [7] 101 % of control | dose: 100.0 mg/kg/injection, schedule: Q04DX003 (ip), vehicle: saline 96 % of control | [8] 101 % of control | dose: 200.0 mg/kg/injection, schedule: Q04DX003 (ip), vehicle: saline 91 % of control | [9] 95 % of control | dose: 400.0 mg/kg/injection, schedule: Q04DX003 (ip), vehicle: saline 101 % of control

O=C(CCl)NC(CO)C(=O)O (configuration not stated)
inactive: dose: 100.0 mg/kg/injection, schedule: Q01DX009 (ip), vehicle: saline with Tween-80 89 % of control | dose: 100.0 mg/kg/injection, schedule: Q04DX003 (ip), vehicle: saline with Tween-80 103 % of control | dose: 200.0 mg/kg/injection, schedule: Q01DX009 (ip), vehicle: saline with Tween-80 87 % of control | dose: 200.0 mg/kg/injection, schedule: Q04DX003 (ip), vehicle: saline with Tween-80 94 % of control

CNC(=O)O/N=C(C)/C(C)=N/OC(=O)NC
inactive: dose: 100.0 mg/kg/injection, schedule: Q01DX001 (ip), vehicle: other 93 % of control | dose: 200.0 mg/kg/injection, schedule: Q01DX001 (ip), vehicle: other 87 % of control | dose: 400.0 mg/kg/injection, schedule: Q01DX001 (ip), vehicle: other 87 % of control

N#Cc1[nH]cnc1N
inactive: [2] 94 % of control | [3] 105 % of control | [4] 97 % of control

CC(C)N1C(=O)OC2(CCN(CCCSc3ccc(F)cc3)CC2)C1=O
inactive: [10] 103 % of control | [11] 103 % of control | [12] 103 % of control

CC(=O)C(C)C(O)c1ccc([N+](=O)[O-])cc1 (configuration not stated)
inactive: [5] 91 % of control | [10] 100 % of control | [6] 91 % of control | [11] 98 % of control | dose: 400.0 mg/kg/injection, schedule: Q01DX009 (ip), vehicle: Klucel (hydroxypropylcellulose) (HPC) 92 % of control | [12] 98 % of control

Cc1cc2c(C(C)C)c(O)c(O)c(C=O)c2c(O)c1-c1c(C)cc2c(C(C)C)c(O)c(O)c(C=O)c2c1O
inactive: dose: 0.25 mg/kg/injection, schedule: Q01DX009 (ip), vehicle: saline 105 % of control | dose: 0.5 mg/kg/injection, schedule: Q01DX009 (ip), vehicle: saline 110 % of control | dose: 1.0 mg/kg/injection, schedule: Q01DX009 (ip), vehicle: saline 106 % of control | dose: 2.0 mg/kg/injection, schedule: Q01DX009 (ip), vehicle: saline 106 % of control | dose: 4.0 mg/kg/injection, schedule: Q01DX009 (ip), vehicle: saline 108 % of control | dose: 8.0 mg/kg/injection, schedule: Q01DX009 (ip), vehicle: saline 101 % of control

CCCCNC(=O)OC
inactive: dose: 50.0 mg/kg/injection, schedule: Q01DX009 (ip), vehicle: Klucel (hydroxypropylcellulose) (HPC) 94 % of control | [5] 97 % of control | [10] 98 % of control | [6] 102 % of control | [11] 91 % of control

CCCCCCCCP(=O)(CCCCCCCC)CCCCCCCC
inactive: dose: 50.0 mg/kg/injection, schedule: Q01DX001 (ip), vehicle: carboxymethylcellulose (CMC) 95 % of control | dose: 100.0 mg/kg/injection, schedule: Q01DX001 (ip), vehicle: carboxymethylcellulose (CMC) 95 % of control | dose: 200.0 mg/kg/injection, schedule: Q01DX001 (ip), vehicle: carboxymethylcellulose (CMC) 95 % of control | [1] 101 % of control
